{
  "source": "patent US20130123345A1",
  "about": "“METHOD OF TREATING A VIRAL INFECTION D[…] […] ADENOSINE RECEPTOR PATHWAY” (THE OHIO STATE UNIVERSITY, priority 2010, published 2013)",
  "key": {"influenza-infected mice [1]": {"test_system": "influenza-infected mice", "assay": "Mortality / survival of treated influenza-infected mice", "type": "in vivo, mouse", "description": "(§1) The pharmacologic blockade of CD73 with APCP (5′-(α,β-methylene)diphosphate) reduces BALF adenosine levels and thereby ameliorates acute lung injury in influenza-infected mice. We investigated effects of daily gavage with APCP (20 mg/kg, in 200 μl saline) on body weight, arterial O2 saturation (SpO2; measured in conscious mice with the MouseOx pulse oximetry system) and survival in 2 groups of 10 individually-marked influenza-infected mice, and compared these animals to mock-infected and untreated influenza-infected mice. […] (FIG. 4C). In fact, 20% of APCP-treated mice survived infection, whereas all untreated mice died. Importantly, APCP gavage had no effect on lung homogenate virus titers at 2 d.p.i. (not shown).\n(§2) A1-AdoR activation is pro-inflammatory in influenza infection and pharmacologic blockade of A1-AdoR with the prototypical A1-AdoR antagonist DPCPX (8-Cyclopentyl-1,3-diproopylxanthine) ameliorates adenosine-induced acute lung injury in influenza-infected mice. Influenza-infected mice were treated with DPCPX (1 mg/kg/day), administered by implanted osmotic minipump (Alzet). The effects of this A1-AdoR antagonist on body weight, arterial O2 saturation (measured by pulse oximetry) and survival were investigated in 2 groups of 10 individually-marked influenza-infected mice. For some outcome measures, we also evaluated the effect of daily administration of the A2b-AdoR antagonist enprofylline (4 mg/kg I.P., in 100 μl 10% ethanol in saline; EMD Biosciences), to determine whether A2b-AdoR blockade also modulates influenza outcomes. […] 10% of DPCPX-treated mice survived infection. […] (not shown). […] (not shown).\n(§3) Mice were infected intranasally with 50 μl influenza A/WSN/33 under 3% isoflurane anesthesia. Mock-infected animals received 50 μl of virus diluent (PBS with 0.1% BSA). In some experiments, mice were individually marked and weighed daily."}, "influenza-infected mice [2]": {"test_system": "influenza-infected mice", "assay": "Influenza-induced loss of body weight in treated infected mice", "type": "in vivo, mouse", "description": "as §1, §2, §3"}, "influenza-infected mice [3]": {"test_system": "influenza-infected mice", "assay": "Arterial O2 saturation (SpO2) by MouseOx pulse oximetry, peripheral hypoxemia", "type": "in vivo, mouse", "description": "as §1, with “Importantly, APCP gavage had no effect on lung homogenate virus titers at 2 d.p.i. (not shown).” left out\nA1-AdoR activation is pro-inflammatory in influenza infection and pharmacologic blockade of A1-AdoR with the prototypical A1-AdoR antagonist DPCPX (8-Cyclopentyl-1,3-diproopylxanthine) ameliorates adenosine-induced acute lung injury in influenza-infected mice. […] The effects of this A1-AdoR antagonist on body weight, arterial O2 saturation (measured by pulse oximetry) and survival were investigated in 2 groups of 10 individually-marked influenza-infected mice. For some outcome measures, we also evaluated the effect of daily administration of the A2b-AdoR antagonist enprofylline (4 mg/kg I.P., in 100 μl 10% ethanol in saline; EMD Biosciences), to determine whether A2b-AdoR blockade also modulates influenza outcomes. […]"}, "influenza A/WSN/33": {"test_system": "influenza A/WSN/33", "assay": "Lung homogenate virus titers", "type": "in vivo, mouse", "description": "as §1, §2"}, "influenza-infected mice [4]": {"test_system": "influenza-infected mice", "assay": "Lung water content (wet:dry weight ratio)", "type": "in vivo, mouse", "conditions": "6 d.p.i.", "description": "as §2\nThe right lung was removed weighed, dried in an oven at 55° C. for 5 days, then reweighed. Wet-to-dry weight ratio provides an index of intrapulmonary fluid accumulation."}, "influenza-infected mice [5]": {"test_system": "influenza-infected mice", "assay": "Total BAL cell counts (pulmonary inflammation)", "type": "in vivo, mouse", "conditions": "6 d.p.i.; 1 mg/kg/day by osmotic minipump", "description": "as §2\nFollowing removal of the left lung, the right lung was lavaged in situ with 0.5 ml of sterile saline. […] Numbers of viable alveolar macrophages, lymphocytes, and polymorphonuclear cells were calculated from total leukocytes (counted using a hemocytometer with 0.4% trypan blue exclusion to assess viability) and differential counts of Diff-Quik-stained cytocentrifuge preparations. […] BAL protein and LDH content were determined by standard colorimetric assays."}, "[6]": {"test_system": "BALB/c mice infected with influenza A/WSN/33", "assay": "Heart rate (bradycardia) by pulse oximetry in influenza-infected mice", "type": "in vivo", "conditions": "6 days infection, 10,000 PFU/mouse; systemic treatment"}, "[7]": {"test_system": "influenza H1N1 virus (A/WSN/33) infected BALB/c mice", "assay": "Alveolar fluid clearance in influenza-infected mice (compound added to fluid clearance instillate)", "type": "in vivo, mouse", "conditions": "2 d.p.i., 10 μM in fluid clearance instillate, 30-min ventilation period"}, "[8]": {"conditions": "1 mg/kg/day by implanted osmotic minipump"}},
  "data": [
    {"molecule": "5′-(α,β-methylene)diphosphate [APCP]", "values": [
      {"measurement": "treated mice that survived infection", "setting": "influenza-infected mice [1]; daily gavage 20 mg/kg, all untreated mice died", "value": 20, "unit": "%"},
      {"measurement": "mortality (delay)", "setting": "influenza-infected mice [1]; daily gavage 20 mg/kg, vs untreated infected mice", "value": "significantly delayed mortality"},
      {"measurement": "influenza-induced loss of body weight", "setting": "influenza-infected mice [2]; daily gavage 20 mg/kg in 200 μl saline", "value": "no significant effect"},
      {"measurement": "onset of peripheral hypoxemia (SpO2)", "setting": "influenza-infected mice [3]; daily gavage 20 mg/kg, conscious mice", "value": "significantly delayed"},
      {"measurement": "lung homogenate virus titers", "setting": "influenza A/WSN/33; 2 d.p.i., daily gavage 20 mg/kg", "value": "no effect"}
    ]},
    {"molecule": "CCCn1c(=O)c2[nH]c(C3CCCC3)nc2n(CCC)c1=O", "note": "[DPCPX, 8-cyclopentyl-1,3-dipropylxanthine]", "values": [
      {"measurement": "lung water content (wet:dry weight ratio)", "setting": "influenza-infected mice [4]; 1 mg/kg/day by osmotic minipump", "value": "significantly reduced"},
      {"measurement": "mortality (delay)", "setting": "influenza-infected mice [1]; [8]", "value": "significantly delayed mortality"},
      {"measurement": "treated mice that survived infection", "setting": "influenza-infected mice [1]; [8]", "value": 10, "unit": "%"},
      {"measurement": "influenza-induced weight loss", "setting": "influenza-infected mice [2]; [8]", "value": "neither DPCPX nor enprofylline had any significant effect"},
      {"measurement": "onset of peripheral hypoxemia", "setting": "influenza-infected mice [3]; [8]", "value": "significantly delayed"},
      {"measurement": "total BAL cell counts", "setting": "influenza-infected mice [5]", "value": "significant reduction"},
      {"measurement": "influenza-induced bradycardia (heart rate)", "setting": "[6]", "value": "reversed"},
      {"measurement": "lung homogenate virus titers", "setting": "influenza A/WSN/33; 6 d.p.i., 1 mg/kg/day by osmotic minipump", "value": "Neither DPCPX nor enprofylline had any effect"}
    ]},
    {"molecule": "N#CC(=C(N)Sc1ccccc1N)C(C#N)=C(N)Sc1ccccc1N", "note": "[U0126, 1,4-diamino-2,3-dicyano-1,4-bis[2-aminophenylthio] butadiene]", "values": [
      {"measurement": "WSN virus-induced suppression of alveolar fluid clearance", "setting": "[7]", "value": "reversed"}
    ]},
    {"molecule": "CCCn1c(=O)[nH]c(=O)c2[nH]cnc21", "note": "[enprofylline]", "values": [
      {"measurement": "lung water content (wet:dry weight ratio)", "setting": "influenza-infected mice [4]; daily 4 mg/kg I.P.", "value": "no such effect"},
      {"measurement": "influenza-induced weight loss", "setting": "influenza-infected mice [2]; daily 4 mg/kg I.P. in 100 μl 10% ethanol in saline", "value": "neither DPCPX nor enprofylline had any significant effect"},
      {"measurement": "lung homogenate virus titers", "setting": "influenza A/WSN/33; 6 d.p.i., daily 4 mg/kg I.P.", "value": "Neither DPCPX nor enprofylline had any effect"}
    ]},
    {"molecule": "CNCCC(Oc1ccc(C(F)(F)F)cc1)c1ccccc1", "note": "(stereo not drawn) [fluoxetine]", "values": [
      {"measurement": "WSN virus-induced suppression of alveolar fluid clearance", "setting": "[7]", "value": "reversed"}
    ]}
  ]
}
